Measurements: a melting point compilation (Tetko et al.)

Structure (SMILES) | melting point
CC(=C(C)c1ccccc1)c1ccccc1 | 64 to 66 °C
CC1(C)C=C(C(N)=O)C(C)(C)N1O | 198 to 200 °C
NCCOS(=O)(=O)O | 277 to 280 °C
CC(=O)O[C@H]1C[C@H]2[C@@H]3CCC4CCCC[C@]4(C)[C@H]3CC[C@]2(C)C1 (stereo not given in full) | 108 °C
CN1C(CSCC(F)(F)F)Nc2cc(Cl)c(S(N)(=O)=O)cc2S1(=O)=O (stereo not given) | 214 °C
CC1OC(=O)C(C)OC1=O (racemic) | 124 °C
Fc1ccc(C2CCNCC2COc2ccc3c(c2)OCO3)cc1 (stereo not given) | 130 °C
Cc1cccc2c1/C(=N/Nc1ccc([N+](=O)[O-])cc1[N+](=O)[O-])C2 | 228 °C
O=Cc1sc(Br)c2c1OCCO2 | 175 to 176 °C
COC1=CC(=O)OC1 | 60 to 65 °C
COc1cc(-c2nnc3n2N=C(C(C)C)CS3)cc(OC)c1OC | 157 °C
Clc1cccc2c(Cl)cccc12 | 107 °C
FC(F)(F)CCCl | -106 °C
CC(C)C[N+](=O)[O-] | -76.8 °C
O=C(O)C1=CC(Cl)=C(Cl)[C@H](O)[C@@H]1O | 195 to 200 °C
CC(=O)OCC#CCOC(C)=O | 28 °C
CCOC(=O)C1(c2cccc(O)c2)CCN(C)CC1 | 110 °C
O=C(Nc1ccccn1)C(F)(F)C(F)(F)C(F)(F)C(F)(F)C(F)(F)C(F)(F)C(F)(F)C(F)(F)F | 66 °C
CCCCCCCCOc1ccc(C(C)=O)cc1OCCCCCCCC | 59 to 61 °C
Nc1c(Br)cc(Br)c(Cl)c1C(=O)O | 212 to 215 °C
CC(=O)N[C@@H](C)C(=O)N[C@@H](C)C(=O)N[C@@H](C)C(=O)O | 248 °C
NCCCNCCNCCCN | -1.5 °C

Structure (SMILES) | melting point
CC1(C)CC1 | -109 °C
CN1C2CC(=O)CC1C(O)C2 (stereo not given) | 120 to 123 °C
O=[N+]([O-])c1cccc([N+](=O)[O-])c1CO | 85 to 95 °C
O=C1C(C(O)c2ccccc2)C(C(F)(F)F)=NN1c1ccccc1 (stereo not given) | 258 °C
CNC(=O)Oc1ccc2c(c1)C1(C)CCOC1N2C (stereo not given) | 124 °C
N#Cc1ccc(C=Cc2ccc(C=Cc3ccc(C#N)cc3[N+](=O)[O-])cc2)c([N+](=O)[O-])c1 | 350 °C
C1CCCCCCCCC1 | 10 °C
CCOP(=S)(OCC)Oc1cnc2ccccc2n1 | 31.5 °C
CCCCOCCOCCCC | -69.1 °C
CCOc1cc2c(cc1OCC)C(CC#N)NCC2 (stereo not given) | 99 to 102 °C
NC(=O)OCC(O)c1ccccc1 (stereo not given) | 112 °C
CCCOc1ccc2c(c1)C(c1ccc(OC)cc1OCC(=O)O)C(C(=O)O)C2c1ccc2c(c1)OCO2 (stereo not given) | 254 °C
CCCCCCCCCCCC(=O)Cl | -17 °C
O=C(OCC(=O)N1CCOCC1)c1ccccc1 | 104 °C
CC(C)(C)CC(=O)OCC(=O)C12OC(C)(C)OC1CC1C3CCC4=CC(=O)C=CC4(C)C3(F)C(O)CC12C (stereo not given) | 295 °C
OCCC(F)(F)C(F)(F)C(F)(F)C(F)(F)C(F)(F)C(F)(F)F | -35 °C
NCCCCCCNCCCCCCN | 33 °C
CCCCCCN(CCCCCC)C1=NC(=Cc2ccccc2)C(=O)N1c1ccccc1 | 76 °C
COc1ccc2c3c([nH]c2c1)C1CC2C(CC(O)C(OC)C2C(=O)O)CN1CC3 (stereo not given) | 242 °C
COc1ccccc1C(=S)N1CCOCC1 | 86 °C
COC(=O)C(Cc1ccc(O)cc1)NC(=O)OC(C)(C)C (stereo not given) | 107 °C
C1CCCSCC1 | 0.5 °C

Structure (SMILES) | melting point
O=C(OCCOc1cc(OCCOC(=O)c2ccccc2)c([N+](=O)[O-])cc1[N+](=O)[O-])c1ccccc1 | 165 °C
CC(=O)O[C@@H]1[C@@H](OC(C)=O)[C@H](C)O[C@@H](OCc2ccccc2)[C@@H]1OC(C)=O | 110 to 113 °C
O=[N+]([O-])c1ccc(N=Nc2ccc(Nc3ccccc3)cc2)cc1 | 160 °C
CC(=O)OC1CCC2(C)C(=CC(=O)C3C4CCC(=O)C4(C)CCC32)C1 (stereo not given) | 182 °C
C#CCCCCCCCCCCCCCCC | 22 °C
CC(=O)Oc1nc(CCc2ccccc2)nn1-c1ccccc1 | 109 °C
CCCCCCCCCCCO | 19 °C
CC1(C)CCC(=O)CC1 | 42 °C
CCCCCCCCCCCCC#N | 9.7 °C
COCCOCCOCCO | -44 °C
O=C(N[C@@H](CSC(c1ccccc1)(c1ccccc1)c1ccccc1)C(=O)O)OCC1c2ccccc2-c2ccccc21 | 172 to 177 °C
CC12CCC3C(CCC4(C)CC(=O)CCC34C)C1CCC2=O (stereo not given) | 148 °C
C=C(C)[C@H]1CC=C(C)C(=O)C1 | 89 °C
Cc1ccc(NC(=O)NC(C)(C)c2ccccc2)cc1 | 203 °C
CCOC(=O)C(=CNc1cc(C)nn1C)C(=O)OCC | 85 to 88 °C
CCOC(=O)CNc1cc(NCC(=O)OCC)c(N)cc1N | > 360 °C
CC1(C)OCC(C2OC3OC(C)(C)OC3C2O)O1 (stereo not given) | 109 °C
CC1CC(=O)OC(=O)C1 | 40 to 45 °C
O=C(O)[C@@H]1CCN1 | 206 to 207 °C
CCOC(=O)Cc1cc(CC(=O)OCC)c(NC(=O)OCC)cc1NC(=O)OCC | 140 °C
CCOC(=O)CCC(C)C1CCC2C3C=CC4CC(OC(C)=O)CCC4(C)C3CC(OC(C)=O)C12C (stereo not given) | 83 to 84 °C

The next lines start with the values.

melting point | Structure (SMILES)
225 °C | COC(=O)c1ccc(NC(C)=O)c(NC(C)=O)c1
71 °C | CCCCCCOc1ccccc1C(N)=O
41 °C | O=C=Nc1ccccc1[N+](=O)[O-]
108 °C | COc1ccc([N+](=O)[O-])cn1
106 to 107 °C | Nc1ccccc1-n1ccnc1
151 °C | O=C(O)Cc1c(Cl)cccc1C(F)(F)F
51 °C | Cc1ccc(N=C=O)cc1[N+](=O)[O-]
215 °C | O=[N+]([O-])c1ccccc1/C=C/c1nc2ccccc2[nH]1
137 to 138 °C | O=C1C(c2ccc(Br)cc2)=C(O)c2ccccc21
137 to 139 °C | Cc1ccc(C=C(Oc2cccc(C)c2)c2nc3ccccc3s2)cc1
186 °C | O=C(O)c1cccc(-c2ccccc2)c1O
143 °C | O=C(COc1ccc(Cl)cc1)n1c(=O)sc2ccccc21
28.5 °C | CC(=O)c1ccccc1[N+](=O)[O-]
150 °C | Cc1[nH]c2cc(C(=O)O)ccc2c1C
100 °C | Nc1ncc(C(F)(F)F)cc1Br
66 °C | O=C(c1ccccc1)c1ccc(C(F)(F)F)c(F)c1
152 °C | O=[N+]([O-])c1ccc(N2CCOCC2)cc1
109 to 110 °C | O=Cc1ccc(-c2cc(C(F)(F)F)cc(C(F)(F)F)c2)o1
32 °C | OCc1ccccc1S
123 °C | CC(=O)NC1Cc2ccccc21 (stereo not given)
92 °C | Oc1ccc(Cl)c2c1CCC2
100 to 103 °C | OC1OC(c2ccccc2)Cc2ccccc21 (stereo not given)

melting point | Structure (SMILES)
79 to 80 °C | CC(=O)c1ccc(OCc2ccc(F)cc2)cc1
49 °C | COC(=O)c1ccno1
40 to 42 °C | CCOC(=O)CCc1ccc(O)cc1
130 to 132 °C | CC(=O)c1csc(-c2cc(C)on2)n1
51 °C | COC(=O)c1ccc(OC)nc1
233 to 235 °C | Cc1nc(C)c(C(=O)O)s1
100 °C | CCOc1ccc(NC(=O)OC(C)C)cc1OCC
49.5 to 54.9 °C | CNCc1ccc(-c2ncccn2)cc1
140 °C | Clc1ccc2cc(Cl)ccc2c1
144 °C | COc1c2ccoc2cc2oc(C)cc(=O)c12
99 °C | Clc1nccc2sccc12
66 °C | O=Cc1ccc(N2CCOCC2)cc1
192 °C | NC(=O)c1ccc(Cl)cc1Cl
216 °C | O=C(O)c1c(-c2ccccc2)nnc2ccccc12
33 to 35 °C | N#Cc1cc(F)ccc1F
196 °C | COc1ccccc1-c1nnc2n1NC(c1ccc([N+](=O)[O-])cc1)S2 (stereo not given)
81 to 85 °C | N#CC1(c2ccc(Cl)cc2Cl)CC1
84 to 86 °C | COC(=O)c1cccnc1N
96 to 98 °C | COC(=O)CSc1cc(C(F)(F)F)nc2ccccc12
251 °C | O=C1Nc2ccc([N+](=O)[O-])cc2C1=O
106 °C | Cc1ccc(C#N)cc1[N+](=O)[O-]
230 °C | Cc1nc(-c2ccccc2)sc1CN

melting point | Structure (SMILES)
53 °C | Cc1cccc(C(O)c2ccccc2)c1 (stereo not given)
177 to 179 °C | COc1ccc(-c2cn3c(n2)sc2ccccc23)cc1
81 to 83 °C | Cc1ccc(COc2cccc(F)c2C#N)cc1
220 to 225 °C | CCOC(=O)c1cc2cc([N+](=O)[O-])ccc2[nH]1
223 to 224 °C | CS(=O)(=O)c1cc(Cl)c(O)c(Cl)c1
115 to 125 °C | ON=CC=Cc1ccccc1
147 to 151 °C | COc1ccc(-c2ocnc2C(=O)O)cc1
118 °C | N#Cc1ccc(Cl)nc1
-22 °C | Cc1ccc2ncccc2c1
170 °C | COc1ccc2c(c1)c(CC(=O)O)c(C)n2C(=O)C=Cc1ccccc1
136 to 139 °C | O=c1oc(=O)n(Cc2ccccc2)c2ccccc12
88.5 °C | CC(C)NCC(O)COc1cccc2c1C=CC2 (stereo not given)
108 °C | CC(C)NCC(O)c1ccc2ccccc2c1 (stereo not given)
300 °C | Nc1nc(Cl)c2nc[nH]c2n1
113 °C | COC(=O)[C@H](CC(=O)O)Cc1cccc2ccccc12
77 °C | Nc1ccc(Br)nc1
76.8 °C | Cc1cccc(C(=O)C(=O)c2ccccc2)n1
47 °C | C[Si](C)(C)C#CC1(O)Cc2ccccc21 (stereo not given)
81 °C | COC(=O)c1cc([N+](=O)[O-])ccc1Br
38 to 41 °C | CCOC(=O)c1cc(-c2cccs2)n(C)n1
37 to 39 °C | Cc1nccn1C
